Data reported in the NIST ThermoML archive (doi:10.1016/j.jct.2015.07.014).
Numbers after ± are expanded uncertainties.

Details: Fluid (supercritical or subcritical phases), Buoyancy - hydrostatic balance with magnetic suspension - one sinker

O=C=O [carbon dioxide]
Details | mass density [kg/m3]
323.2 K, 10968 kPa | 497.981 ± 0.29
323.24 K, 14966 kPa | 698.2 ± 0.34
323.24 K, 18962 kPa | 770.445 ± 0.37
323.24 K, 24961 kPa | 833.514 ± 0.4
323.25 K, 12967 kPa | 633.58 ± 0.32
323.25 K, 16965 kPa | 739.597 ± 0.36
323.25 K, 22962 kPa | 815.681 ± 0.39
323.25 K, 26959 kPa | 849.181 ± 0.4
323.25 K, 28037 kPa | 856.967 ± 0.41
323.26 K, 20966 kPa | 795.018 ± 0.38
